Measured values published in patent US20150086646A1, “ANESTHETIC NEUTRALIZATION METHODS” (Instigo Biotech Ltd., priority 2012, published 2015).

Test system: Male rats (SD Rat)
Assay: Paw thermal sensitivity (Plantar test) in rats after regional anesthesia of the sciatic and saphenous nerves
Type: in vivo
Settings: for response time relative to group 2 (anesthetic + buffer) / response time (average time before lifting the treated limb): 150 microliters at each locus; for elimination of effects of regional anesthesia (overall conclusion of the model): rat model, lidocaine HCl 2%/epinephrine 1:100,000 nerve block; for response time (average time before lifting the treated limb): 7 min after lidocaine HCl 2%/epinephrine 1:100,000, 5 minutes after administration, anesthetic + buffer group 20-35 seconds, no-anesthetic control 4-6 seconds
Description: An animal model was performed to test ROS/RNS dosages and effects on sensory anesthesia following administration of regional anesthesia, as follows. Male rats (SD Rat) weighing between 300-350 grams, were supplied by Harlan, Israel, and were randomly assigned to experimental groups. Rats were provided with sterile rodent diet with free access to drinking water. In the animal model, a testing chamber (Plantar test 3730 apparatus, made by Ugo Basile) was used in which the rats were placed on a surface which is heated and increases heat gradually. A measurement of time from placement of the rat's hind limb on the hot surface to lifting the hind limb was recorded. […] All rats were habituated to the testing facilities for five days before the model, and then introduced into the testing chamber two days prior to the testing of regional anesthesia in order to habituate rats to the apparatus. One day prior to regional anesthetic administration, baseline body weight measurements and baseline paw thermal sensitivity were recorded. Rats were randomly divided into 7 groups having 4 rats in each group. Group 1 was not administered anesthesia, but was administered saline solution as a vehicle at the time of regional anesthetic administration to groups 2-7. Groups 2 through 7 were administered lidocaine HCl 2%/epinephrine 1:100,000 ready to use solution (hereinafter, “anesthetic,”) 7 minutes before administering test items. Regional anesthetic was injected around the sciatic and saphenous nerves at a volume of 150 microliters at each site of the rat's left hind limb. Injection around the saphenous nerve was performed via local injection to/next to the adductor canal which runs on the medial aspect of the thigh between the vastus medialis and the sartorius muscles, about 2-3 cm below the inguinal canal. Injection around the sciatic nerve was performed via local injection to the sciatic notch, positioned 1 mm from the femoral shaft between the greater trochanter and ischial tuberosity pointing toward the ischium. Five minutes after injection of regional anesthetic, an assessment of the nerve blocks was performed by pinching the rat's paw to determine if the regional anesthetics were properly administered. Seven minutes after regional anesthetic administration, test agents were administered to the same loci, in a volume of 150 microliters at each locus. Groups 1 and 2 were administered a vehicle buffer as test agents. Group 3 was administered 0.1 mM hydrogen peroxide, formulated in saline solution. […] PON which was administered to rats was prepared by commercially available sodium peroxynitrite in NaCl and NaOH each at a concentration of 0.3 molar, available from Cayman Chemical. The commercially available PON was diluted to the desired concentrations for injection, by forming a suspension in 0.3M NaCl, 0.1M glycine having a pH of 10.5. All rats were tested for paw thermal sensitivity at 5, 10, 15, 20, 60 and 120 minutes after administration of the test items using the testing chamber. The results of average time before lifting the treated limb in each rat for each time point was calculated and is depicted in FIG. 2.

Row | SMILES | response time relative to group 2 (anesthetic + buffer) (group 3: 0.1 mM hydrogen peroxide in saline, 5, 10 and 15 minute time points) | statistical significance of the effect on response time (group 3: 0.1 mM hydrogen peroxide, 4 rats per group) | elimination of effects of regional anesthesia (overall conclusion of the model) | response time (average time before lifting the treated limb) (group 4: PON 40 mM) | response time (average time before lifting the treated limb) (group 5: PON 10 mM) | response time relative to group 2 (anesthetic + buffer) (group 6: PON 1 mM, 5 and 10 minute time points)
1 | OO [H2O2, hydrogen peroxide] | decreased response time | not statistically significant | effective in quickly eliminating effects of regional anesthesia |  |  | 
2 | O=NOO [PON, sodium peroxynitrite] |  |  | effective in quickly eliminating effects of regional anesthesia | 4 to 6 s | 4 to 6 s | improved response time
